Measurements taken from US20040087792A1, “Tryptase-inhibitors” (priority 2001, published 2004).
Structures can show the parent of a compound that is named as a salt.

Target: human tryptase
Assay: Inhibition of human tryptase (equilibrium, chromogenic substrate tos-Gly-Pro-arg-pNA)
Type: biochemical
Details: in the presence of substrate; heparin 0.1-50 μg/ml; cleavage monitored at 405 nm; read-out: Klapp (apparent dissociation constant Kiapp)
Source text: The documented pathophysiological effects of mast cell tryptase are caused directly by the enzymatic activity of the protease. Accordingly, they are reduced or blocked by inhibitors which inhibit the enzymatic activity of the tryptase. A suitable measure for the affinity of a reversible inhibitor to the target protease is the equilibrium dissociation constant Ki of the enzyme-inhibitor complex. This Ki value can be determined via the effect of the inhibitor on the tryptase-induced cleavage of a chromogenic peptide-p-nitroanilide substrate or a fluorogenic peptide-aminomethylcoumarin substrate.
The dissociation constants for the tryptase-inhibitor complexes are determined under equilibrium conditions in accordance with the general proposals of Bieth (Bieth J G, Pathophysiological Interpretation of kinetic constants of protease inhibitors, Bull. Europ. Physiopath. Resp. 16:183-195, 1980) and the methods of Sommerhoff et al. (Sommerhoff C P et al., A Kazal-type inhibitor of human mast cell tryptase: Isolation from the medical leech Hirudo medicinalis, characterization, and sequence analysis, Biol. Chem. Hoppe-Seyler 375: 685-694, 1994).
Human tryptase is isolated from lung tissue or prepared recombinantly; the specific activity of the protease, determined by titration, is usually greater than 85% of the theoretical value. […]

| Ki | SMILES |
| --- | --- |
| 35 nM | CCOC(=O)CN(CCNC(=O)OCC#Cc1ccc(C#CCOC(=O)NCCN(CC(=O)OCC)C(=O)CCc2ccc(CN)cc2)cc1)C(=O)CCc1ccc(CN)cc1 [Compound 1, 1,4-Bis-{N-[3-(4-aminomethyl-phenyl)-propionyl]-N-(ethoxycarbonyl-methyl)-amino-3-(ethyl-aminocarbonyloxy)-prop-1-ynyl}-benzene dihydrochloride] |
| 5.4 nM | CCOC(=O)CN(CCNC(=O)OCC#CCOC(=O)NCCN(CC(=O)OCC)C(=O)CCc1ccc(CN)cc1)C(=O)CCc1ccc(CN)cc1 [Compound 3, 1,4-Bis{N-[3-(4-(aminomethyl-phenyl)-propionyl]-N-(ethoxycarbonyl-methyl)-amino-3-(ethyl-aminocarbonyloxy)}-2-butynedihydrochloride] |
